# Patent US10202360B2 (CELGENE QUANTICEL RESEARCH, INC., priority 2016, dated 2019)
# Target: CREBBP (Homo sapiens (Human), UniProt Q92793)
# Test: In vitro enzyme inhibition assay - CREBBP inhibition (AlphaScreen, biotinylated H4-tetraacetyl peptide)
# Type: binding
# Conditions: Table 28; AlphaScreen, H4-tetraacetyl peptide
# In short: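 Displacement of 20 nM biotinylated tetraacetyl-H4 peptide from 50 nM E. coli-expressed His-CREBBP, measured by AlphaScreen after bead equilibration for 2 h.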
# CREBBP, sequence (Q92793 1081-1197): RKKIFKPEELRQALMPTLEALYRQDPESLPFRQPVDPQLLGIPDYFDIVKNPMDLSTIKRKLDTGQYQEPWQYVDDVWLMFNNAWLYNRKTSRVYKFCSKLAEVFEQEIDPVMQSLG
row,Compound,IC50
1,"CCCS(=O)(=O)Nc1cc(Oc2c(C#N)cccc2OC)nc(-c2cc(C)c(=O)n(C)c2)n1 [Example 130, Propane-1-sulfonic acid [6-(2-cyano-6-methoxy-phenoxy)-2-(1,5-dimethyl-6-oxo-1,6-dihydro-pyridin-3-yl)-pyrimidin-4-yl]-amide]",< 500 nM
2,"CCS(=O)(=O)Nc1cc(-c2cc(C)c(=O)n(C)c2)nc(OC2CCCC2)n1 [Example 131, Ethanesulfonic acid [2-cyclopentyloxy-6-(1,5-dimethyl-6-oxo-1,6-dihydro-pyridin-3-yl)-pyrimidin-4-yl]-amide]",< 500 nM
3,"Cc1cc(-c2cc(S(C)(=O)=O)nc(Oc3ccc(F)cc3F)n2)cn(C)c1=O [Example 132, 5-[2-(2,4-Difluoro-phenoxy)-6-methanesulfonyl-pyrimidin-4-yl]-1,3-dimethyl-1H-pyridin-2-one]",< 500 nM
4,"Cc1cc(-c2cc(S(=O)(=O)C(C)C)nc(Oc3ccc(F)cc3F)n2)cn(C)c1=O [Example 134, 5-[2-(2,4-Difluoro-phenoxy)-6-(propane-2-sulfonyl)-pyrimidin-4-yl]-1,3-dimethyl-1H-pyridin-2-one]",< 500 nM
5,"Cc1cccc(Cl)c1Oc1nc(-c2cc(C)c(=O)n(C)c2)cc(S(=O)(=O)C(C)C)n1 [Example 135, 5-[2-(2-Chloro-6-methyl-phenoxy)-6-(propane-2-sulfonyl)-pyrimidin-4-yl]-1,3-dimethyl-1H-pyridin-2-one]",< 500 nM
6,"Cc1cccc(F)c1Oc1nc(NS(=O)(=O)CCCF)cc(-c2ccc(=O)n(C)c2)n1 [Example 136, 3-Fluoro-propane-1-sulfonic acid [2-(2-fluoro-6-methyl-phenoxy)-6-(1-methyl-6-oxo-1,6-dihydro-pyridin-3-yl)-pyrimidin-4-yl]-amide]",< 500 nM
7,"CCC(C)S(=O)(=O)Nc1cc(-c2ccc(=O)n(C)c2)nc(Oc2c(C)cccc2F)n1 (centres unmarked) [Example 137, Butane-2-sulfonic acid [2-(2-fluoro-6-methyl-phenoxy)-6-(1-methyl-6-oxo-1,6-dihydro-pyridin-3-yl)-pyrimidin-4-yl]-amide]",< 500 nM
8,"CCCCS(=O)(=O)Nc1cc(-c2cc(C)c(=O)n(C)c2)nc(Oc2c(F)cccc2Cl)n1 [Example 138, Butane-1-sulfonic acid [2-(2-chloro-6-fluoro-phenoxy)-6-(1,5-dimethyl-6-oxo-1,6-dihydro-pyridin-3-yl)-pyrimidin-4-yl]-amide]",< 500 nM
9,"CCCCS(=O)(=O)Nc1cc(-c2ccc(=O)n(C)c2)nc(Oc2c(F)cccc2Cl)n1 [Example 139, Butane-1-sulfonic acid [2-(2-chloro-6-fluoro-phenoxy)-6-(1-methyl-6-oxo-1,6-dihydro-pyridin-3-yl)-pyrimidin-4-yl]-amide]",< 500 nM
10,"CCS(=O)(=O)Nc1cc(-c2cc(C)c(=O)n(C)c2)nc(OC(C)C)n1 [Example 140, Ethanesulfonic acid [6-(1,5-dimethyl-6-oxo-1,6-dihydro-pyridin-3-yl)-2-isopropoxy-pyrimidin-4-yl]-amide]",< 500 nM
11,"CCCS(=O)(=O)Nc1cc(-c2cc(C)c(=O)n(C)c2)nc(Oc2c(F)cccc2Cl)n1 [Example 141, Propane-1-sulfonic acid [2-(2-chloro-6-fluoro-phenoxy)-6-(1,5-dimethyl-6-oxo-1,6-dihydro-pyridin-3-yl)-pyrimidin-4-yl]-amide]",< 500 nM
12,"Cc1cc(-c2cc(NS(=O)(=O)C(C)C)nc(Oc3c(F)cccc3Cl)n2)cn(C)c1=O [Example 142, Propane-2-sulfonic acid [2-(2-chloro-6-fluoro-phenoxy)-6-(1,5-dimethyl-6-oxo-1,6-dihydro-pyridin-3-yl)-pyrimidin-4-yl]-amide]",< 500 nM
13,"CCCS(=O)(=O)Nc1cc(-c2ccc(=O)n(C)c2)nc(Oc2c(F)cccc2Cl)n1 [Example 143, Propane-1-sulfonic acid [2-(2-chloro-6-fluoro-phenoxy)-6-(1-methyl-6-oxo-1,6-dihydro-pyridin-3-yl)-pyrimidin-4-yl]-amdie]",< 500 nM
14,"CC(C)S(=O)(=O)Nc1cc(-c2ccc(=O)n(C)c2)nc(Oc2c(F)cccc2Cl)n1 [Example 144, Propane-2-sulfonic acid [2-(2-chloro-6-fluoro-phenoxy)-6-(1-methyl-6-oxo-1,6-dihydro-pyridin-3-yl)-pyrimidin-4-yl]-amide]",< 500 nM
15,"Cc1cccc(F)c1Oc1nc(NS(=O)(=O)CCCC(F)(F)F)cc(-c2ccc(=O)n(C)c2)n1 [Example 146, 4,4,4-Trifluoro-butane-1-sulfonic acid [2-(2-fluoro-6-methyl-phenoxy)-6-(1-methyl-6-oxo-1,6-dihydro-pyridin-3-yl)-pyrimidin-4-yl]-amide]",< 500 nM
16,"CCS(=O)(=O)Nc1cc(-c2cc(C)c(=O)n(C)c2)nc(OC(C)c2ccccc2)n1 (centres unmarked) [Example 147, Ethanesulfonic acid [6-(1,5-dimethyl-6-oxo-1,6-dihydro-pyridin-3-yl)-2-(1-phenyl-ethoxy)-pyrimidin-4-yl]-amide]",< 500 nM
17,"Cn1cc(-c2cc(NS(=O)(=O)CCCF)nc(Oc3c(F)cccc3Cl)n2)ccc1=O [Example 148, N-(2-(2-chloro-6-fluorophenoxy)-6-(1-methyl-6-oxo-1,6-dihydropyridin-3 yl)pyrimidin-4-yl)-3-fluoropropane-1-sulfonamide]",< 500 nM
18,"Cc1cccc(C#N)c1Oc1nc(NS(=O)(=O)CCC(F)(F)F)cc(-c2ccc(=O)n(C)c2)n1 [Example 149, N-(2-(2-cyano-6-methylphenoxy)-6-(1-methyl-6-oxo-1,6-dihydropyridin-3-yl)pyrimidin-4-yl)-3,3,3-trifluoropropane-1-sulfonamide]",< 500 nM
19,"Cc1cccc(C#N)c1Oc1nc(NS(=O)(=O)CCCC(F)(F)F)cc(-c2ccc(=O)n(C)c2)n1 [Example 150, N-(2-(2-cyano-6-methylphenoxy)-6-(1-methyl-6-oxo-1,6-dihdyropyridin-3-yl)pyrimidin-4-yl)-4,4,4-trifluorobutane-1-sulfonamide]",< 500 nM
20,"CCS(=O)(=O)Nc1cc(-c2cc(C)c(=O)n(C)c2)nc(OCC(F)(F)F)n1 [Example 151, N-(6-(1,5-dimehtyl-6-oxo-1,6-dihydropyridin-3-yl)-2-(2,2,2-trifluoroethoxy)pyrimidin-4-yl)ethanesulfonamide]",< 500 nM
21,"Cc1cc(-c2cc(NS(=O)(=O)C(C)C)nc(OCC(C)C)n2)cn(C)c1=O [Example 152, N-(6-(1,5-dimethyl-6-oxo-1,6-dihydropyridin-3-yl)-2-isobutoxypyrimidin-4-yl)propane-2-sulfonamide]",< 500 nM
22,"CCS(=O)(=O)Nc1nc(Oc2c(C)cccc2C)nc(-c2cc(C)c(=O)n(C)c2)n1 [Example 153, Ethanesulfonic acid [4-(1,5-dimethyl-6-oxo-1,6-dihydro-pyridin-3-yl)-6-(2,6-dimethyl-phenoxy)-[1,3,5]triazin-2-yl]-amide]",< 500 nM

# Continued, values first:
row,IC50,Compound
1,< 500 nM,"CCCS(=O)(=O)Nc1cc(-c2ccc(=O)n(C)c2)nc(Oc2c(C)cccc2F)n1 [Example 120, Propane-1-sulfonic acid [2-(2-fluoro-6-methyl-phenoxy)-6-(1-methyl-6-oxo-1,6-dihydro-pyridin-3-yl)-pyrimidin-4-yl]-amide]"
2,< 500 nM,"CCCCS(=O)(=O)Nc1cc(-c2cc(Cl)c(=O)n(C)c2)nc(Oc2c(C)cccc2F)n1 [Example 122, Butane-1-sulfonic acid [6-(5-chloro-1-methyl-6-oxo-1,6-dihydro-pyridin-3-yl)-2-(2-fluoro-6-methyl-phenoxy)-pyrimidin-4-yl]-amide]"
3,< 500 nM,"Cc1cccc(C#N)c1Oc1nc(NS(=O)(=O)CCCF)cc(-c2ccc(=O)n(C)c2)n1 [Example 123, 3-Fluoro-propane-1-sulfonic acid [2-(2-cyano-6-methyl-phenoxy)-6-(1-methyl-6-oxo-1,6-dihydro-pyridin-3-yl)-pyrimidin-4-yl]-amide]"
4,< 500 nM,"CCCCS(=O)(=O)Nc1cc(-c2ccc(=O)n(C)c2)nc(Oc2c(C)nn(C)c2C)n1 [Example 124, Butane-1-sulfonic acid [6-(1-methyl-6-oxo-1,6-dihydro-pyridin-3-yl)-2-(1,3,5-trimethyl-1H-pyrazol-4-yloxy)-pyrimidin-4-yl]-amide]"
5,< 500 nM,"Cc1nn(C)c(C)c1Oc1nc(NS(=O)(=O)C(C)C)cc(-c2ccc(=O)n(C)c2)n1 [Example 125, Propane-2-sulfonic acid [6-(1-methyl-6-oxo-1,6-dihydro-pyridin-3-yl)-2-(1,3,5-trimethyl-1H-pyrazol-4-yloxy)-pyrimidin-4-yl]-amide]"
6,< 500 nM,"CCCS(=O)(=O)Nc1cc(-c2ccc(=O)n(C)c2)nc(Oc2c(C)nn(C)c2C)n1 [Example 126, Propane-1-sulfonic acid [6-(1-methyl-6-oxo-1,6-dihydro-pyridin-3-yl)-2-(1,3,5-trimethyl-1H-pyrazol-4-yloxy)-pyrimidin-4-yl]-amide]"
7,< 500 nM,"CCn1nc(C)c(Oc2nc(NS(=O)(=O)C(C)C)cc(-c3cc(C)c(=O)n(C)c3)n2)c1C [Example 127, Propane-2-sulfonic acid [6-(1,5-dimethyl-6-oxo-1,6-dihydro-pyridin-3-yl)-2-(1-ethyl-3,5-dimethyl-1H-pyrazol-4-yloxy)-pyrimidin-4-yl]-amide]"
8,< 500 nM,"CCCCS(=O)(=O)Nc1cc(-c2cc(C)c(=O)n(C)c2)nc(Oc2c(C)nn(CC)c2C)n1 [Example 128, Butane-1-sulfonic acid [6-(1,5-dimethyl-6-oxo-1,6-dihydro-pyridin-3-yl)-2-(1-ethyl-3,5-dimethyl-1H-pyrazol-4-yloxy)-pyrimidin-4-yl]-amide]"
9,< 500 nM,"CCCS(=O)(=O)Nc1cc(Oc2c(C)cccc2C#N)nc(-c2cc(C)c(=O)n(C)c2)n1 [Example 129, Propane-1-sulfonic acid [6-(2-cyano-6-methyl-phenoxy)-2-(1,5-dimethyl-6-oxo-1,6-dihydro-pyridin-3-yl)-pyrimidin-4-yl]-amide]"
10,< 500 nM,"Cc1cccc(Cl)c1Oc1nc(-c2cc(C)c(=O)n(C)c2)cc(S(C)(=O)=O)n1 [Example 133, 5-[2-(2-Chloro-6-methyl-phenoxy)-6-methanesulfonyl-pyrimidin-4-yl]-1,3-dimethyl-1H-pyridin-2-one]"
